Results as given in paper PMC11121495, “Blap-6, a Novel Antifungal Peptide from the Chinese Medicinal Beetle Blaps rhynchopetera against Cryptococcus neoformans” (International Journal of Molecular Sciences, 2024).
Where no end group is shown, it is not given here.

How the values were obtained:
[1] = tested on: S. aureus; assay: microbe, parasite or virus in culture; format: cell-based, Staphylococcus aureus (ATCC 6538)
Description: (§1) These standard strains of Escherichia coli (E. coli, ATCC 8739), Staphylococcus aureus (S. aureus, ATCC 6538), Pseudomonas aeruginosa (P. aeruginosa, ATCC 27853), Acinetobacter baumannii (A. baumannii, ATCC 1968), Candida albicans (ATCC 10231), and the clinical strain of Methicillin-resistant Staphylococcus aureus (MRSA, MRSA-Z) were obtained from Kunming Medical University. The standard strain of C. neoformans (ATCC 32045) was purchased from Shanghai Yingxin Laboratory Co., Ltd. (CAS NO. YXJ50058). Different strains of E. coli, S. aureus, MRSA, P. aeruginosa, and A. baumannii were cultured with shaking at 37 °C in Luria–Bertani (LB) medium. C. neoformans was cultured at 35 °C in Sabouraud Dextrose Agar (SDA) medium according to the manufacturer’s instructions.
(§2) According to Clinical and Laboratory Standards Institute (CLSI) protocols, the minimum inhibitory concentration (MIC) is the minimum drug concentration at which antibiotics inhibit the growth and reproduction of strains. The different strains were grown in their corresponding media at 35 °C or 37 °C until they entered the exponential growth phase. Fluconazole and amphotericin B were used as positive controls, and sterile 0.9% NaCl was used as a negative control. The peptides were diluted to various concentrations in sterile saline. According to 1 OD = 1 × 10^9 CFU/mL, the above bacterial solution was diluted to 2 × 10^5 CFU/mL with the corresponding medium. In advance, 100 μL of normal saline was added to a sterile 96-well plate, and 200 μL of the sample to be tested was added to the first well. The sample to be tested was subjected to double gradient dilution, and then 100 μL of bacterial solution with a concentration of 2 × 10^5 was added to each well. It was cultured at 35 °C or 37 °C for different times. The light absorption value of the bacterial solution at 600 nm was detected by a microplate reader (Epoch Etock, Biotek, Winooski, VT, USA), and the average concentration of the samples in the pores and adjacent pores that could not detect microbial growth was used as the MIC value.

[2] = tested on: MRSA; assay: microbe, parasite or virus in culture; format: cell-based
Description: as §1, §2

[3] = tested on: C. neoformans; assay: microbe, parasite or virus in culture; format: cell-based, Cryptococcus neoformans (ATCC 32045)
Description: as §1, §2

[4] = tested on: C. neoformans ATCC 32045; assay: Fungal-killing kinetics; format: cell-based, Cryptococcus neoformans; settings: 10 × MIC; 1 × 10^6 CFU/mL, SDB, 37 °C, colony count
Experimental: The single colony of C. neoformans ATCC 32045 was selected and cultured at 180 rpm and 37 °C, washed three times with normal saline, and then resuspended, and the fungal solution was diluted to 1 × 10^6 CFU/mL with SDB medium. The positive control was fluconazole, and the negative control was normal saline. […] The fungal liquid after adding the sample was quickly put into the 37 °C constant temperature incubator, and the shaking culture was carried out at 180 rpm. […] The plate was placed in a constant temperature incubator for inverted culture for 72 h at 37 °C, and then the single colony on the plate was counted.

[5] = tested on: C. neoformans ATCC 32045 biofilm; assay: Biofilm inhibition (crystal violet); format: cell-based, Cryptococcus neoformans; settings: 1 × MIC, 48 h, 37 °C, A600, dose-dependent
Experimental: The single colony of C. neoformans ATCC 32045 was selected and cultured at 180 rpm and 37 °C. The physiological saline was washed three times and then re-suspended. The fungal concentration was adjusted to 1 × 10^6 CFU/mL, and then 100 μL of the fungal solution was added to each hole in the 96-well plate. The samples to be tested were diluted with sterile saline to 0.5×, 1×, 2×, 4×, and 8 × MIC, and 100 μL was added to the 96-well plate and mixed well. Three replicate wells were set for each concentration. The negative control group was added to the same volume of sterile saline. The positive control group was added with 10 μM fluconazole and amphotericin B, respectively, and the above group was incubated in a 37 °C incubator for 48 h. After that, the supernatant was discarded and washed with sterile PBS three times, 1 min each time. And then, 99% methanol was added and fixed for 5 min. After staining with 100 μL 0.1% crystal violet for 5 min, the plate was washed with PBS, and 100 μL 95% ethanol was added. The absorbance at 600 nm was detected by a microplate reader.

[6] = tested on: C. neoformans ATCC 32045 pre-formed biofilm; assay: Biofilm eradication (crystal violet); format: cell-based, Cryptococcus neoformans; settings: 1 × MIC, 48 h pre-formed biofilm, 48 h treatment, A600
Experimental: The single colony of C. neoformans ATCC 32045 was picked and cultured at 180 rpm and 37 °C. After washing with normal saline three times and being resuspended, the concentration of the fungal solution was adjusted to 1 × 10^6 CFU/mL and then added to a 96-well plate. Each well was incubated at 37 °C for 48 h. The fungal solution was discarded and washed three times with PBS for 1 min each time. The sample to be tested was diluted with normal saline to 0.5×, 1×, 2×, 4× and 8 × MIC, and 200 μL was added to the 96-well plate, respectively. Each concentration was set to three replicate wells, and the negative control group was added with the same volume of sterile normal saline. In the positive control group, 10 μM fluconazole and 10 μM amphotericin B were added and incubated at 37 °C for 48 h. After that, the supernatant was discarded and washed three times with sterile PBS for 1 min each time. And then, 99% methanol was added and fixed for 5 min. Methanol was removed and dried under the ultra-clean bench. After staining with 100 μL 0.1% crystal violet for 5 min, wash the plate with PBS, dry, and add 100 μL 95% ethanol. The absorbance at 600 nm was detected by a microplate reader.

[7] = tested on: C. neoformans ATCC 32045 cell membrane; assay: Membrane potential, DiSC3(5) staining; format: cell-based, Cryptococcus neoformans; settings: 1 × MIC, 8 × MIC and 16 × MIC; DiSC3(5) 0.5 μM, ex/em 622/670 nm
Experimental: DiSC3(5) is a fluorescent probe often used as a tracer dye to assess the cell membrane potential. […] C. neoformans ATCC 32045 was selected for SDB medium and cultured in a constant-temperature shaker at 35 °C to the logarithmic phase. The supernatant was removed by centrifugation at 3500 rpm for 5 min, washed three times with normal saline, and then the fungal solution was diluted with normal saline containing 100 mM potassium chloride to an OD600 of about 0.1. […] The above-mixed suspension was added to a fluorescence-specific 96-well plate, 190 μL per well, and the excitation/emission wavelength was set at 622/670 nm, and a microplate reader was used for measurement. The measurement was performed until the microplate reader value was stable and then continued for 20 min. The experimental group was added with 10 μL blap-6 to make the final concentrations 16 × MIC, 8 × MIC, and 1 × MIC, respectively. The positive control group was added with 10 μL of valinomycin to a final concentration of 10 μM. The negative control was added to 10 μL of normal saline. Continue to measure for 60 min. Three replicates were set up in the experiment.

KRCRFRIYRWGFPRRRF [blap-6]
MIC [1]: 9.77 µM
MIC [2]: 4.89 µM
MIC [3]: 0.81 µM
time within which all the fungi were killed [4]: ≤ 30 min
inhibition of biofilm formation [5]: significantly inhibited
eradication of pre-formed biofilm [6]: ability to remove pre-formed C. neoformans biofilm
change of membrane potential [7]: deviations toward cell hyperpolarization in a dose-dependent manner
